The subject of data set [1] is spleen cells. As to the kind of experiment: MTT assay cytotoxicity in mouse spleen cells. The data set is classed as cell-based. To be noted: all concentrations (100, 300, and 600 μg/ml). The method, then:
For the isolation of mouse spleen cells, 5-6 week old ICR male mice (Oriental Bio, Seoul, Korea) were sacrificed with CO2 and then their spleen was aseptically extracted. The spleen was ground with a filter to separate single spleen cells, centrifuged using centrifugation, and erythrocytes were dissolved using ficoll. Cells from which erythrocytes had been removed were stabilized with RPMI (10% FBS, 1% antibiotics) at 37° C. for 2 hours.
(§1) The absorbance thereof was measured at 570 nm.

Data set [2] relates to COX-2. As to the kind of experiment: Kidney tissue COX-2 mRNA expression by real-time PCR in cisplatin-induced nephrotoxicity model. The data set is classed as in vivo, C57BL/6 male mice. To be noted: cisplatin and oleanolic acid acetate (50 mg/Kg)-treated group. The method, then: (§2) For the experiment, the mice were kept under constant temperature (23±3° C.), humidity (55±15%) and light irradiation (7:00 to 19:00). After the purchase, the mice were stabilized in the SPF animal breeding room for 1 week and used in the experiment.
(§3) After the mouse sacrifice, kidneys were separated and homogenized by adding Trizol reagent (Invitrogen, Carlsbad, Calif., USA). To this, chloroform was added to extract RNA, and isopropanol was added to precipitate. After the RNA precipitate was washed with 75% ethanol, the RNA concentration and purity were measured with a 2100 Bioanalyzer System (Agilent Technologies, Santa Clara, Calif., USA), and Taqman reverse transcription reagents kit (Applied Biosystems, Foster City) was used to synthesize cDNA. The expression level of inflammatory factors was measured by real-time PCR using SYBR Green PCR master mix kit (Applied Biosystem, Foster City, Calif., USA).
(§4) In order to examine the expression levels of TNF-α and IL-6, inflammatory cytokines, COX-2, a prostaglandin E2 (PGE2) synthase involved in increasing the vascular permeability of the inflammatory response, and MCP-1, an inflammatory chemokine, Real-time PCR was performed on each gene.

Data set [3] concerns IL-6. Nature of the data set: Blood IL-6 by ELISA in cisplatin-induced nephrotoxicity model. Format: in vivo, C57BL/6 male mice. To be noted: cisplatin and oleanolic acid acetate (50 mg/Kg)-treated group, serum ELISA. How it is done:
as §2
(§5) In order to measure inflammatory cytokines in the blood (TNF-α and IL-6), serum was separated and used from blood, and TNF-α and IL-6 were measured using a mouse ELISA kit (R&D system, Minneapolis, Minn., USA). ELISA color development was measured using a Varioskan™ LUX multimode microplate reader (Thermofisher, Sunnyvale, Calif., USA) at a wavelength of 450 nm.

Data set [4] deals with cisplatin-induced nephrotoxicity. Nature of the data set: Cisplatin-induced nephrotoxicity animal model: body weight, kidney weight, death rate, BUN. Format: in vivo, C57BL/6 male mice. The method, then:
as §2
After the mouse sacrifice, the body weight was measured, the kidney was isolated, the blood was collected from the heart, and the blood urea nitrogen (BUN), a biochemical indicator related to nephrotoxicity, was measured. The collected mouse blood was centrifuged at 3000 rpm and 4° C. for 15 minutes using a centrifuge to separate the only serum, and the BUN was measured using an automatic analyzer (Fuji Dry-Chem NX500i, Tokyo, Japan).
The death rate was expressed as a percentage by dividing the number of mice killed in each group by the total number of mice.

Data set [5] deals with HEK-293T cells. Nature of the data set: MTT assay cytotoxicity in HEK-293T human embryonic kidney cells. To be noted: for cell survival rate: HEK-293T, highest concentration of 1000 μg/ml, 24 hours.
Procedure: HEK-293T cells, human embryonic kidney cells, were cultured in Dulbecco's modified eagle medium (Cat No. 12800-017, Gibco, USA) supplemented with heat-inactivated 10% FBS.
The survival rate of cultured cells was measured by MTT reduction method. As an MTT solution, formazan was formed by mitochondrial dehydrogenases in living cells to confirm cell viability. […] After 24 hours, 20 μl of MTT solution was added to each well, followed by further culturing for 2 hours. Then, the culture solution was removed, and 100 μl of dimethylsulfoxide was added thereto. The absorbance thereof was measured at 570 nm.
Data set [6] concerns TNF-α. As to the kind of experiment: Blood TNF-α by ELISA in cisplatin-induced nephrotoxicity model. Particulars: cisplatin and oleanolic acid acetate (50 mg/Kg)-treated group, serum ELISA. Format: in vivo, C57BL/6 male mice. How it is done:
as §2, §5

For data set [7], the system named is IL-6. Nature of the data set: Kidney tissue IL-6 mRNA expression by real-time PCR in cisplatin-induced nephrotoxicity model. Particulars: cisplatin and oleanolic acid acetate (50 mg/Kg)-treated group. Format: in vivo, C57BL/6 male mice. The method, then: as §2, §3, §4
Data set [8] relates to peritoneal macrophages. As to the kind of experiment: MTT assay cytotoxicity in mouse peritoneal macrophages. Format: cell-based. To be noted: for cell survival rate: maximum concentration of 1000 μg/ml, 24 hours. How it is done: For the isolation of peritoneal macrophage of mice, 3 ml of 3% thioglycollate medium was administered intraperitoneally to 5-6 week old ICR male mice (Oriental Bio, Seoul, Korea). After 3 days, 6 ml to 7 ml of PBS was administered intraperitoneally, followed by a massage of peritoneal cavity to collect the peritoneal fluid. The collected peritoneal fluid was centrifuged and suspended in RPMI (10% FBS, 1% antibiotics), transferred to a plate, and stabilized at 37° C. for 2 hours.
as §1

Data set [9] deals with TNF-α. Nature of the data set: Kidney tissue TNF-α mRNA expression by real-time PCR in cisplatin-induced nephrotoxicity model. The data set is classed as in vivo, C57BL/6 male mice. To be noted: cisplatin and oleanolic acid acetate (50 mg/Kg)-treated group. The method, then: as §2, §3, §4
Data set [10] deals with MCP-1. Nature of the data set: Kidney tissue MCP-1 mRNA expression by real-time PCR in cisplatin-induced nephrotoxicity model. The data set is classed as in vivo, C57BL/6 male mice. Particulars: cisplatin and oleanolic acid acetate (50 mg/Kg)-treated group. The method, then:
as §2, §3, §4

Consider two compounds from US11464787B2, “Composition comprising oleanolic acid acetate as active ingredient for preventing, alleviating, or treating renal toxicity induced by medicine” (Korea Research Institute of Bioscience and Biotechnology, priority 2016, dated 2022).

`CC(=O)O[C@H]1CC[C@@]2(C)C(CC[C@]3(C)[C@@H]2CC=C2[C@H]4CC(C)(C)CC[C@]4(C(=O)O)CC[C@]23C)C1(C)C` (stereo partly drawn) [oleanolic acid acetate, 4aS,6aR,6aS,6bR,8aR,10S,12aR,14bS-10-hydroxy-2,2,6a,6b,9,9,12a-heptamethyl-1,3,4,5,6,6a,7,8,8a,10,11,12,13,14b-tetradecahydropicene-4a-carboxylic acid acetate]: the “cell survival rate compared with oleanolic acid (in words)” value in data set [1] was “higher cell survival rate than that of oleanolic acid”. Moreover, the “amount of mRNA expression of COX-2” value in data set [2] is reported as “decreased”. Moreover, in [3], the “IL-6 in the blood” value is “decreased”. This compound showed a death rate in data set [4] (cisplatin 20 mg/kg i.p. and oleanolic acid acetate 50 mg/Kg orally, mice) of 44%. Further, the BUN value entry in [4] (cisplatin and oleanolic acid acetate (50 mg/Kg oral)-treated group, serum, day 5, vs cisplatin group) is given as “decreased”. In addition, the values for the cell survival rate in data set [5] and in data set [8] were 43% and 81%, respectively. For the same compound, the “cytotoxicity (in words)” value is recorded as “concentration-dependently less than that of oleanolic acid” in data set [5] (human kidney cell lines, compared with oleanolic acid) and “almost no cytotoxicity” in data set [8]. Moreover, in [6], the “TNF-α in the blood” value is reported as “decreased”. For the same compound, in data set [7], the “amount of mRNA expression of IL-6” value was “decreased”. Besides, in data set [9], the “amount of mRNA expression of TNF-α” value was “decreased”. In addition, the “amount of mRNA expression of MCP-1” value in [10] is given as “decreased”.

In data set [5], `CC1(C)CC[C@]2(C(=O)O)CC[C@]3(C)C(=CC[C@@H]4[C@@]5(C)CC[C@H](O)C(C)(C)[C@@H]5CC[C@]43C)[C@@H]2C1` [oleanolic acid] had a cell survival rate of 27%. For the same compound, in [8], the “cytotoxicity (in words)” value was “cytotoxicity in a concentration-dependent manner” and the cell survival rate was found to be 41%.
